For test [1], the target named is T1, GLP-1 receptor (Homo sapiens, UniProt P43220). The experiment in a line: Assay for production of cAMP.
The target in test [2] is T1, GLP-1 receptor.

Drawing on US20100016547A1, “Glycosilated Peptide and Medicine Comprising It as an Effective Ingredient” (priority 2005, published 2010), this text covers EC50 and IC50 for eight compounds.

Peptide text beside a SMILES is read from it. * marks the point of attachment. X2 = CC(=O)N[C@@H]1[C@@H](O)[C@H](O[C@@H]2O[C@H](CO[C@]3(C(=O)O)C[C@H](O)[C@@H](NC(C)=O)[C@H]([C@H](O)[C@H](O)CO)O3)[C@H](O)[C@H](O)[C@H]2O)[C@@H](CO)O[C@H]1N*; X1 = CC(=O)N[C@@H]1[C@@H](O)[C@H](O[C@@H]2O[C@H](CO)[C@H](O)[C@H](O)[C@H]2O)[C@@H](CO)O[C@H]1N*; NH(β-GlcNAc) = CC(=O)N[C@@H]1[C@@H](O)[C@H](O)[C@@H](CO)O[C@H]1N*

T1 sequence (P43220 24-463, species assumed): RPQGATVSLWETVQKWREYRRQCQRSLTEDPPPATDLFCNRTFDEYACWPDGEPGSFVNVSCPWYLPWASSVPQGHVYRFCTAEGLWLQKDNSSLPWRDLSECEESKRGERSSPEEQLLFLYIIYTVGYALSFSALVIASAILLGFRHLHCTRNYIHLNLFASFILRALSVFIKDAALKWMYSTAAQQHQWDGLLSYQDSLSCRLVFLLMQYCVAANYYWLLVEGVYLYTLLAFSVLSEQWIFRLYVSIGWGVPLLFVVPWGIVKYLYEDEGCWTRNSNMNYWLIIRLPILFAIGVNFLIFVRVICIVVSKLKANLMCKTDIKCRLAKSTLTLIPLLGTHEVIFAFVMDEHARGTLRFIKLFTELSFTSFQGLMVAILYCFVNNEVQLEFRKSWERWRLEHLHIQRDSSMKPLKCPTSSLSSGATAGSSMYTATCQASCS

One may read the EC50 as the concentration at which the effect is half-maximal. Higher therefore signals a need for much substance. `CC[C@H](C)[C@H](NC(=O)[C@H](Cc1ccccc1)NC(=O)[C@H](CS)NC(=O)[C@H](CCCNC(=N)N)NC(=O)[C@@H](NC(=O)[C@H](C)NC(=O)[C@H](CCC(=O)O)NC(=O)[C@H](CCC(=O)O)NC(=O)[C@H](CCC(=O)O)NC(=O)[C@H](CCSC)NC(=O)[C@H](CCC(N)=O)NC(=O)[C@H](CCCCN)NC(=O)[C@H](CO)NC(=O)[C@H](CC(C)C)NC(=O)[C@H](CC(=O)O)NC(=O)[C@H](CO)NC(=O)[C@@H](NC(=O)[C@H](Cc1ccccc1)NC(=O)[C@@H](NC(=O)CNC(=O)[C@H](CCC(=O)O)NC(=O)CNC(=O)[C@@H](N)Cc1c[nH]cn1)[C@@H](C)O)[C@@H](C)O)C(C)C)C(=O)N[C@@H](CCC(=O)O)C(=O)N[C@@H](Cc1c[nH]c2ccccc12)C(=O)N[C@@H](CC(C)C)C(=O)N[C@@H](CCCCN)C(=O)N[C@@H](CS)C(=O)NCC(=O)NCC(=O)N1CCC[C@H]1C(=O)N[C@@H](CO)C(=O)N[C@@H](CO)C(=O)NCC(=O)N[C@@H](CS)C(=O)N1CCC[C@H]1C(=O)N1CCC[C@H]1C(=O)N1CCC[C@H]1C(=O)N[C@@H](CO)C(=O)N[C@@H](CS)C(N)=O` [EX21283540C] had an EC50 in test [1] of 0.055 nM.
The term IC50 denotes the concentration needed to halve the response being measured. Lower therefore signals greater potency in that assay. The compound `CC[C@H](C)[C@H](NC(=O)[C@H](Cc1ccccc1)NC(=O)[C@H](CCC(=O)O)NC(=O)[C@H](CCCCN)NC(=O)[C@H](C)NC(=O)[C@H](C)NC(=O)[C@H](CCC(N)=O)NC(=O)CNC(=O)[C@H](CCC(=O)O)NC(=O)[C@H](CC(C)C)NC(=O)[C@H](Cc1ccc(O)cc1)NC(=O)[C@H](CO)NC(=O)[C@H](CO)NC(=O)[C@@H](NC(=O)[C@H](CC(=O)O)NC(=O)[C@H](CO)NC(=O)[C@@H](NC(=O)[C@H](Cc1ccccc1)NC(=O)[C@@H](NC(=O)CNC(=O)[C@H](CCC(=O)O)NC(=O)[C@H](CC(=O)N[C@@H]1O[C@H](CO)[C@@H](O[C@@H]2O[C@H](CO)[C@H](O)[C@H](O)[C@H]2O)[C@H](O)[C@H]1NC(C)=O)NC(=O)[C@@H](N)Cc1c[nH]cn1)[C@@H](C)O)[C@@H](C)O)C(C)C)C(=O)N[C@@H](C)C(=O)N[C@@H](Cc1c[nH]c2ccccc12)C(=O)N[C@@H](CC(C)C)C(=O)N[C@H](C(=O)N[C@@H](CCCCN)C(=O)NCC(=O)N[C@@H](CCCNC(=N)N)C(N)=O)C(C)C` [GL08NL] gave a concentration for half-maximal inhibition (IC50) in test [2] above 100 nM. Also, in test [1], the EC50 amounted to 284 nM.
In turn, `CC[C@H](C)[C@H](NC(=O)[C@H](Cc1ccccc1)NC(=O)[C@H](CCC(=O)O)NC(=O)[C@H](CCCCN)NC(=O)[C@H](C)NC(=O)[C@H](C)NC(=O)[C@H](CCC(N)=O)NC(=O)CNC(=O)[C@H](CCC(=O)O)NC(=O)[C@H](CC(C)C)NC(=O)[C@H](CC(=O)N[C@@H]1O[C@H](CO)[C@@H](O)[C@H](O)[C@H]1NC(C)=O)NC(=O)[C@H](CO)NC(=O)[C@H](CO)NC(=O)[C@@H](NC(=O)[C@H](CC(=O)O)NC(=O)[C@H](CO)NC(=O)[C@@H](NC(=O)[C@H](Cc1ccccc1)NC(=O)[C@@H](NC(=O)CNC(=O)[C@H](CCC(=O)O)NC(=O)[C@H](C)NC(=O)[C@@H](N)Cc1c[nH]cn1)[C@@H](C)O)[C@@H](C)O)C(C)C)C(=O)N[C@@H](C)C(=O)N[C@@H](Cc1c[nH]c2ccccc12)C(=O)N[C@@H](CC(C)C)C(=O)N[C@H](C(=O)N[C@@H](CCCCN)C(=O)NCC(=O)N[C@@H](CCCNC(=N)N)C(N)=O)C(C)C` [GL19NG] (H-HAEGTFTSDVSSD(NH(β-GlcNAc))LEGQAAKEFIAWLVKGR-NH2) displayed an IC50 in test [2] of 41 nM. In test [1], this compound came in with a half-maximal effective concentration (EC50) of 8.1 nM.
In test [2], `CC[C@H](C)[C@H](NC(=O)[C@H](Cc1ccccc1)NC(=O)[C@H](CCC(=O)O)NC(=O)[C@H](CCCCN)NC(=O)[C@H](C)NC(=O)[C@H](C)NC(=O)[C@H](CCC(N)=O)NC(=O)CNC(=O)[C@H](CCC(=O)O)NC(=O)[C@H](CC(C)C)NC(=O)[C@H](CC(=O)N[C@@H]1O[C@H](CO)[C@@H](O[C@@H]2O[C@H](CO)[C@H](O)[C@H](O)[C@H]2O)[C@H](O)[C@H]1NC(C)=O)NC(=O)[C@H](CO)NC(=O)[C@H](CO)NC(=O)[C@@H](NC(=O)[C@H](CC(=O)O)NC(=O)[C@H](CO)NC(=O)[C@@H](NC(=O)[C@H](Cc1ccccc1)NC(=O)[C@@H](NC(=O)CNC(=O)[C@H](CCC(=O)O)NC(=O)[C@H](C)NC(=O)[C@@H](N)Cc1c[nH]cn1)[C@@H](C)O)[C@@H](C)O)C(C)C)C(=O)N[C@@H](C)C(=O)N[C@@H](Cc1c[nH]c2ccccc12)C(=O)N[C@@H](CC(C)C)C(=O)N[C@H](C(=O)N[C@@H](CCCCN)C(=O)NCC(=O)N[C@@H](CCCNC(=N)N)C(N)=O)C(C)C` [GL19NL] (H-HAEGTFTSDVSSD(X1)LEGQAAKEFIAWLVKGR-NH2; N-terminus assumed) gave an IC50 of 38 nM. In test [1], this compound yielded a concentration for a half-maximal effect (EC50) of 8.3 nM.
For the compound `CC[C@H](C)[C@H](NC(=O)[C@H](Cc1ccccc1)NC(=O)[C@H](CCC(=O)O)NC(=O)[C@H](CCCCN)NC(=O)[C@H](C)NC(=O)[C@H](C)NC(=O)[C@H](CCC(N)=O)NC(=O)CNC(=O)[C@H](CCC(=O)O)NC(=O)[C@H](CC(C)C)NC(=O)[C@H](CC(=O)N[C@@H]1O[C@H](CO)[C@@H](O[C@@H]2O[C@H](CO[C@]3(C(=O)O)C[C@H](O)[C@@H](NC(C)=O)[C@H]([C@H](O)[C@H](O)CO)O3)[C@H](O)[C@H](O)[C@H]2O)[C@H](O)[C@H]1NC(C)=O)NC(=O)[C@H](CO)NC(=O)[C@H](CO)NC(=O)[C@@H](NC(=O)[C@H](CC(=O)O)NC(=O)[C@H](CO)NC(=O)[C@@H](NC(=O)[C@H](Cc1ccccc1)NC(=O)[C@@H](NC(=O)CNC(=O)[C@H](CCC(=O)O)NC(=O)[C@H](C)NC(=O)[C@@H](N)Cc1c[nH]cn1)[C@@H](C)O)[C@@H](C)O)C(C)C)C(=O)N[C@@H](C)C(=O)N[C@@H](Cc1c[nH]c2ccccc12)C(=O)N[C@@H](CC(C)C)C(=O)N[C@H](C(=O)N[C@@H](CCCCN)C(=O)NCC(=O)N[C@@H](CCCNC(=N)N)C(N)=O)C(C)C` [GL19NS6] (H-HAEGTFTSDVSSD(X2)LEGQAAKEFIAWLVKGR-NH2), in test [2], the IC50 was above 100 nM. For the same compound, the EC50 in test [1] was 50 nM.
`CC[C@H](C)[C@H](NC(=O)[C@H](Cc1ccccc1)NC(=O)[C@H](CCC(=O)O)NC(=O)[C@H](CC(N)=O)NC(=O)[C@H](C)NC(=O)[C@H](C)NC(=O)[C@H](CCC(N)=O)NC(=O)CNC(=O)[C@H](CCC(=O)O)NC(=O)[C@H](CC(C)C)NC(=O)[C@H](Cc1ccc(O)cc1)NC(=O)[C@H](CO)NC(=O)[C@H](CO)NC(=O)[C@@H](NC(=O)[C@H](CC(=O)O)NC(=O)[C@H](CO)NC(=O)[C@@H](NC(=O)[C@H](Cc1ccccc1)NC(=O)[C@@H](NC(=O)CNC(=O)[C@H](CCC(=O)O)NC(=O)[C@H](C)NC(=O)[C@@H](N)Cc1c[nH]cn1)[C@@H](C)O)[C@@H](C)O)C(C)C)C(=O)N[C@@H](C)C(=O)N[C@@H](Cc1c[nH]c2ccccc12)C(=O)N[C@@H](CC(C)C)C(=O)N[C@H](C(=O)N[C@@H](CCCCN)C(=O)NCC(=O)N[C@@H](CCCNC(=N)N)C(N)=O)C(C)C` [GL26N] came in with a half-maximal effective concentration (EC50) in test [1] of 0.09 nM.
`CC[C@H](C)[C@H](NC(=O)[C@H](Cc1ccccc1)NC(=O)[C@H](CCC(=O)O)NC(=O)[C@H](CCCCN)NC(=O)[C@H](C)NC(=O)[C@H](C)NC(=O)[C@H](CCC(N)=O)NC(=O)CNC(=O)[C@H](CCC(=O)O)NC(=O)[C@H](CC(C)C)NC(=O)[C@H](Cc1ccc(O)cc1)NC(=O)[C@H](CO)NC(=O)[C@H](CO)NC(=O)[C@@H](NC(=O)[C@H](CC(=O)O)NC(=O)[C@H](CO)NC(=O)[C@@H](NC(=O)[C@H](Cc1ccccc1)NC(=O)[C@@H](NC(=O)CNC(=O)[C@H](CCC(=O)O)NC(=O)[C@H](C)NC(=O)[C@@H](N)Cc1c[nH]cn1)[C@@H](C)O)[C@@H](C)O)C(C)C)C(=O)N[C@@H](C)C(=O)N[C@@H](Cc1c[nH]c2ccccc12)C(=O)N[C@@H](CC(C)C)C(=O)N[C@H](C(=O)N[C@@H](CC(=O)N[C@@H]1O[C@H](CO)[C@@H](O[C@@H]2O[C@H](CO)[C@@H](O[C@@H]3O[C@H](CO[C@H]4O[C@H](CO)[C@@H](O)[C@H](O)[C@@H]4O[C@@H]4O[C@H](CO)[C@@H](O[C@@H]5O[C@H](CO[C@]6(C(=O)O)C[C@H](O)[C@@H](NC(C)=O)[C@H]([C@H](O)[C@H](O)CO)O6)[C@H](O)[C@H](O)[C@H]5O)[C@H](O)[C@H]4NC(C)=O)[C@@H](O)[C@H](O[C@H]4O[C@H](CO)[C@@H](O)[C@H](O)[C@@H]4O[C@@H]4O[C@H](CO)[C@@H](O[C@@H]5O[C@H](CO[C@]6(C(=O)O)C[C@H](O)[C@@H](NC(C)=O)[C@H]([C@H](O)[C@H](O)CO)O6)[C@H](O)[C@H](O)[C@H]5O)[C@H](O)[C@H]4NC(C)=O)[C@@H]3O)[C@H](O)[C@H]2NC(C)=O)[C@H](O)[C@H]1NC(C)=O)C(=O)NCC(=O)N[C@@H](CCCNC(=N)N)C(N)=O)C(C)C` [GL34NE1]: in test [2], the concentration for half-maximal inhibition (IC50) is 2.7 nM.
Take `CC[C@H](C)[C@H](NC(=O)[C@H](Cc1ccccc1)NC(=O)[C@H](CCC(=O)O)NC(=O)[C@H](CCCCN)NC(=O)[C@H](C)NC(=O)[C@H](C)NC(=O)[C@H](CCC(N)=O)NC(=O)CNC(=O)[C@H](CCC(=O)O)NC(=O)[C@H](CC(C)C)NC(=O)[C@H](Cc1ccc(O)cc1)NC(=O)[C@H](CO)NC(=O)[C@H](CO)NC(=O)[C@@H](NC(=O)[C@H](CC(=O)O)NC(=O)[C@H](CO)NC(=O)[C@@H](NC(=O)[C@H](Cc1ccccc1)NC(=O)[C@@H](NC(=O)CNC(=O)[C@H](CCC(=O)O)NC(=O)[C@H](C)NC(=O)[C@@H](N)Cc1c[nH]cn1)[C@@H](C)O)[C@@H](C)O)C(C)C)C(=O)N[C@@H](C)C(=O)N[C@@H](Cc1c[nH]c2ccccc12)C(=O)N[C@@H](CC(C)C)C(=O)N[C@H](C(=O)N[C@@H](CC(=O)N[C@@H]1O[C@H](CO)[C@@H](O[C@@H]2O[C@H](CO[C@]3(C(=O)O)C[C@H](O)[C@@H](NC(C)=O)[C@H]([C@H](O)[C@H](O)CO)O3)[C@H](O)[C@H](O)[C@H]2O)[C@H](O)[C@H]1NC(C)=O)C(=O)NCC(=O)N[C@@H](CCCNC(=N)N)C(N)=O)C(C)C` [GL34NS6]: 0.7 nM corresponded to half-maximal inhibition in test [2] (IC50).
